Data on 75 compounds can be found in the OPERA property sets (Mansouri et al. 2018).

Conditions in one data set: not given
Broadly, the boiling point is the temperature of boiling at a given pressure. With `COc1ccc(Cl)cc1`, the boiling point was 198 °C.

Broadly, the melting point is the temperature of the solid-liquid transition. With `Cc1cccc(C)c1O`, the boiling point was determined as 201 °C, the log10 Henry constant (atm·m³/mol) was -5.18, the log10 vapour pressure (mmHg) is -0.767 and the melting point came out at 45.7 °C. Moreover, the ready biodegradability result was “not readily biodegradable”.

Compound `CC(C)S(=O)(=O)O` gave a melting point of -37 °C.

In turn, `N#CC(CCN1CCC(C(N)=O)(N2CCCCC2)CC1)(c1ccccc1)c1ccccc1` yielded a melting point of 150 °C.

For the compound `Cc1cc(C)c([N+](=O)[O-])c(C)c1`, the boiling point was 255 °C and the melting point was 44 °C.

In the case of `CCOc1nc(NC)nc(NC(=O)NS(=O)(=O)c2ccccc2C(=O)OC)n1`, the log10 Koc (L/kg) was 1.93 and the melting point was determined as 194 °C.

Compound `COC(=O)C1C2C=CC(C2)C1C(=O)OC` (stereo not given) yielded a melting point of 38 °C.

Consider `C=CCOC(C)=O`, for which the boiling point came out at 104 °C and the log10 vapour pressure (mmHg) was 1.43.

On to `COc1ccccc1Cl`, for which the boiling point turned out to be 198 °C, the log10 vapour pressure (mmHg) was -0.623 and the melting point was -26.8 °C.

With `O=C1COc2ccccc21`, the melting point was 102 °C.

`Cc1ccc(OC(=O)c2ccccc2)cc1` registered a boiling point of 316 °C and a melting point of 71.5 °C.

`C=C[C@](C)(O)CC[C@@H]1[C@@]2(C)CCCC(C)(C)[C@@H]2CC[C@@]1(C)O` showed a melting point of 97 °C.

`CC(C)(Br)C(=O)O` showed a boiling point of 199 °C and a melting point of 48.5 °C.

With `NCCc1ccccc1`, the boiling point was 198 °C, the melting point was -60 °C and the ready biodegradability entry is “readily biodegradable”.

Compound `BrCCCBr` had a boiling point of 167 °C, a log10 Henry constant (atm·m³/mol) of -3.05, a log10 vapour pressure (mmHg) of 0.134 and a melting point of -34.2 °C. For the same compound, the ready biodegradability entry is recorded as “not readily biodegradable”.

In turn, `CC(C)N1C(=O)c2ccccc2[N]([Na])S1(=O)=O` returned a log10 Koc (L/kg) of 1.54.

`Clc1c(Cl)c(Cl)c2c(c1Cl)Oc1c(Cl)c(Cl)c(Cl)c(Cl)c1O2` registered a boiling point of 510 °C, a log10 Koa of 12.1, a log10 vapour pressure (mmHg) of -12.1 and a melting point of 330 °C.

`C=CC(C)C(C)O` (stereo not given): the boiling point was determined as 126 °C.

`CCOC(=O)Cc1cccc2ccccc12` registered a log10 Koc (L/kg) of 2.48 and a melting point of 88.5 °C.

The compound `Cc1ccc(Sc2ccc(C)cc2)cc1` registered a melting point of 57.3 °C.

The compound `Brc1c(Br)c(Br)c2c(c1Br)Oc1c(Br)c(Br)c(Br)c(Br)c1O2` showed a log10 vapour pressure (mmHg) of -12.5 and a melting point of 376 °C.

Consider `C=CCn1c(=O)n(CC=C)c(=O)n(CC=C)c1=O`, for which the melting point is 20.5 °C and the ready biodegradability entry was “not readily biodegradable”.

Turning to `CCCCC(C#N)(Cn1cncn1)c1ccc(Cl)cc1` (stereo not given), the log10 Koc (L/kg) was found to be 2.7.

Turning to `N#CC(F)(F)F`, the boiling point was -68.8 °C.

`CNc1cccc2ccccc12` had a boiling point of 294 °C and a melting point of 174 °C.

With `O=C1OC(=O)C(F)(F)C(F)(F)C1(F)F`, the boiling point amounted to 72 °C.

On to `C=CCCCCCCCCCCCCCCCCCCCCC(=O)O`, for which the ready biodegradability entry is “readily biodegradable”.

As to `CC1=CCCC1=O`, the boiling point worked out at 157 °C.

Regarding `O=C(O)c1ccccc1Nc1cccc(C(F)(F)F)c1`, the melting point was determined as 134 °C.

`Brc1cc(Br)c(Br)s1` had a boiling point of 260 °C and a melting point of 29 °C.

For the compound `OCCOc1ccc2ccccc2c1`, the melting point stood at 76.7 °C.

The compound `Cc1cc(C)c(S(=O)(=O)Cl)c(C)c1` registered a melting point of 56 °C.

In turn, `O=[N+]([O-])c1ccc(O/N=C/c2cc(Br)c(O)c(Br)c2)c([N+](=O)[O-])c1` displayed a melting point of 196 °C.

The compound `Cc1c2ccncc2c(C)c2c1[nH]c1ccccc12` came in with a melting point of 313 °C.

On to `Oc1cccc(C(F)(F)F)c1`, for which the boiling point came out at 178 °C and the melting point is -1.8 °C.

Regarding `C[C@H](CN1CCOCC1)C(C(=O)N1CCCC1)(c1ccccc1)c1ccccc1`, the melting point was found to be 182 °C.

Turning to `CC(=O)Cc1ccccc1`, the boiling point was found to be 216 °C and the melting point was -15 °C.

The compound `CCN=C=S` gave a boiling point of 132 °C, a log10 vapour pressure (mmHg) of 1.06 and a melting point of -5.9 °C.

As to `CCOC(=O)C(=O)OCC`, the boiling point turned out to be 186 °C, the log10 vapour pressure (mmHg) was -0.383, the melting point was -40.6 °C and the ready biodegradability result is “readily biodegradable”.

On to `CCC(C)C#N` (stereo not given), for which the boiling point came to 125 °C.

On to `N=C(N)N(c1ccccc1)c1ccccc1`, for which the ready biodegradability result is on record as “not readily biodegradable”.

`COc1ccccc1I` displayed a boiling point of 241 °C.

For the compound `CCC(C)CC(C)N` (stereo not given), the boiling point is 132 °C.

Compound `Oc1c(Br)cccc1Br` showed a boiling point of 255 °C and a melting point of 56.5 °C.

`CCN(N)c1ccccc1` yielded a boiling point of 237 °C.

`Cc1nc2ccccc2o1` showed a boiling point of 200 °C and a melting point of 9.5 °C.

As to `O=C=Nc1cccc2ccccc12`, the boiling point was 269 °C.

On to `CC(Br)C(=O)O` (stereo not given), for which the boiling point stood at 203 °C.

`C=CC(F)(Cl)C(F)(F)Br` (stereo not given): the boiling point turned out to be 99.5 °C.

`Clc1cc2c(Cl)cccc2c(Cl)c1Cl` registered a log10 Koa of 8.29, a log10 vapour pressure (mmHg) of -4.96 and a melting point of 141 °C.

In turn, `CCC(Cl)Cl` displayed a boiling point of 88.1 °C and a log10 vapour pressure (mmHg) of 1.83.

As for `N#Cc1ncnc2nc[nH]c12`, the melting point came out at 188 °C.

As to `CN1CCc2c(c3ccccc3n2Cc2ccccc2)C1`, the melting point is 95 °C.

In the case of `C/C=C/C(=O)OCC`, the boiling point was found to be 137 °C.

For `Cc1ccc(Cl)cc1Cl`, the boiling point turned out to be 201 °C, the log10 vapour pressure (mmHg) is -0.339, the melting point is -13.5 °C and the ready biodegradability entry is given as “not readily biodegradable”.

On to `CC1CCC(C)(C(=O)O)C1(C)C` (stereo not given), for which the boiling point stood at 254 °C and the melting point was 106 °C.

The compound `N#C[S-].[NH4+]` displayed a melting point of 150 °C.

`CCOc1ccc([Si](C)(C)CCCc2ccc(F)c(Oc3ccccc3)c2)cc1` came in with a log10 vapour pressure (mmHg) of -7.73.

The compound `O=C(O)c1ccccc1Br` registered a melting point of 150 °C.

Take `O=C(O)c1nn(Cc2ccc(Cl)cc2Cl)c2ccccc12`: the melting point is 207 °C.

The compound `Cc1onc(-c2ccccc2)c1C(=O)N[C@@H]1C(=O)N2[C@@H]1SC(C)(C)[C@@H]2C(=O)O` registered a melting point of 188 °C.

Take `C/C=C(\C)C=O`: the boiling point was 117 °C.

On to `CC=CC(C)C`, for which the boiling point was 58.8 °C and the melting point is -130 °C.

Take `CC(C)(C)OC(C)(C)C`: the boiling point was 107 °C and the log10 vapour pressure (mmHg) stood at 1.51.

`CC(C(=O)[O-])c1ccccc1` (stereo not given): the boiling point was found to be 261 °C.

With `C1CCC2CC2C1` (stereo not given), the boiling point was 116 °C and the log10 vapour pressure (mmHg) turned out to be 1.36.

The compound `CCCCSSCCCC` had a log10 vapour pressure (mmHg) of -1.2.

On to `COc1cc(Cl)c(OC)cc1Cl`, for which the boiling point worked out at 268 °C, the log10 Koc (L/kg) was determined as 3.1, the log10 vapour pressure (mmHg) was -2.52 and the melting point was found to be 134 °C.

Compound `COc1ccc2c3c1O[C@H]1[C@@H](O)C=C[C@H]4[C@@H](C2)N(C)CC[C@@]341.Cl` displayed a melting point of 280 °C.

In the case of `CCOC(=O)c1ccc(OC)cc1`, the boiling point is 270 °C and the melting point worked out at 7.5 °C.

In the case of `CCCCOC(=O)C(C)Oc1ccc(Oc2ccc(C(F)(F)F)cn2)cc1` (stereo not given), the log10 Koc (L/kg) amounted to 3.62, the log10 vapour pressure (mmHg) was -6.5 and the melting point came to 9 °C.

As to `Clc1cc2c(cc1Cl)Oc1ccccc1O2`, the log10 Koa is 8.5, the log10 vapour pressure (mmHg) is -5.53 and the melting point is 163 °C.

Turning to `CCCCCC=CC=O`, the log10 Henry constant (atm·m³/mol) was -4.13.

Compound `C[C@@H]1C(=O)OC[C@H]2[C@@H]1CC[C@@H]2C` yielded a melting point of 60.5 °C.

With `Cc1c[nH]c(C)c1`, the boiling point is 168 °C.

The same data set, now with this note: fish.
`Clc1c(Cl)c(Cl)c2c(c1Cl)Oc1c(Cl)c(Cl)c(Cl)c(Cl)c1O2` returned a log10 BCF of 3.12 and a log10 biotransformation half-life (days) of 1.16.

The compound `Clc1cc2c(cc1Cl)Oc1ccccc1O2` gave a log10 biotransformation half-life (days) of 0.33.
